Where two headings read alike, the source gives them in different places.
Tests used:
[1] = in vitro; type: cell-based; conditions: African green monkey
Description: Vero E6 (ATCC, CRL-1586) cells (1 × 10^4 cells/well) were maintained in a 96-well plate for 12 h. All cells were cultured in complete medium composed of Dulbecco’s Modified Eagle Medium (DMEM) (Gibco, USA), 10% (v/v) serum, 100 U/mL penicillin, and 100 µg/mL streptomycin. The diluted solutions of the tested compounds (200 µL) at the concentrations of 100, 80, 60, 40, 20, 10, and 5 µM were added to wells and incubated for another 24 or 48 h, respectively. At the terminus period of incubation, 50 µL MTT (2.5 mg/mL) was added to each well and continuously incubated at 37 ℃ for 4 h. After disposal of the liquid supernatant, 150 µL DMSO was added to each well, whose absorbance was detected at 490 nm via Microplate Reader (TECAN SunriseTM, China). Cytotoxicity was calculated as follows: Cell viability (%) = (ODexperiment-ODBlank)/(ODcontrol-ODBlank) × 100%. The data were analyzed with GraphPad Prism 9.0. All experiments were performed in triplicates.

[2] = test system: mice; conditions: cited from earlier work
[3] = target: T1, SARS-CoV-2 M^pro (Severe acute respiratory syndrome coronavirus 2, UniProt P0DTD1); assay: SPR binding affinity to M^pro (Biacore T200, CM5 chip); conditions: for kon / koff: kinetic mode; for kon: read-out: Ka (association rate constant); for koff: read-out: Kd (dissociation rate constant)
Description: SPR assay. Biacore T200 system was used for SPR assay. M^pro was conjugated to a sensor Chip (CM5) via amino coupling reaction. The tested compounds were diluted with the running buffer (1.05 × PBS-P, 5% DMSO) to reach the working concentration of 0.977–500 µM, being injected into the channels at a flow rate of 30 µL/min. The coupling time and the dissociation time were respectively set at 60 s and 120 s or 180 s. The data were analyzed for fitting the equilibrium dissociation constant (KD).

[4] = target: T1, SARS-CoV-2 M^pro; assay: ITC measurement of binding to M^pro; conditions: ITC at 298 K
[5] = target: T1, SARS-CoV-2 M^pro; assay: FRET screening of SARS-CoV-2 M^pro inhibitors; type: biochemical; conditions: for inhibition at 40 µM: read-out: inhibition rate; for IC50: n = 5
Description: FRET screening was carried out for identifying the inhibitors of SARS-CoV-2 M^pro. […] The screening system was established by employing M^pro (200 nM), substrate (20 µM), and the tested compounds with the different concentrations from 0.039 to 160 µM. The excitation and emission wavelength were set at 320 and 405 nm, separately. The data was analyzed with Graphpad prism 9.0 and all experiments were performed in triplicates.

[6] = kinetic mode (physcion: affinity mode)

C[C@@H]1O[C@@H](O[C@@H]2[C@@H](O)[C@H](OCCc3ccc(O)c(O)c3)O[C@H](CO)[C@H]2OC(=O)/C=C/c2ccc(O)c(O)c2)[C@H](O)[C@H](O)[C@H]1O [Acteoside]
CC50 [1]: > 100 µM
safe dose [2]: up to 800 mg/kg
Kd [3, 6]: 4.67 µM
kon [3]: 847 M⁻¹ s⁻¹
koff [3]: 0.00396 s⁻¹
N (binding stoichiometry) [4]: 0.48
ΔS (entropy variation) [4]: 27.3 cal/mol/deg
inhibition at 40 µM [5]: > 90%
IC50 ([5]; with 0.01% Triton X-100): 1.93 ± 0.76 µM
IC50 ([5]; without Triton X-100): 2.53 ± 1.02 µM

COc1c(/C=C/C(=O)c2ccc(O)cc2)ccc(O)c1O [Licochalcone B]
Kd [3, 6]: 5.64 µM
kon [3]: 2210 M⁻¹ s⁻¹
koff [3]: 0.0125 s⁻¹
inhibition at 40 µM [5]: > 90%
IC50 ([5]; with 0.01% Triton X-100): 5.12 ± 1.53 µM
IC50 ([5]; without Triton X-100): 4.24 ± 1.03 µM

COc1c(/C=C/C(=O)c2ccc(O)c(CC=C(C)C)c2)ccc(O)c1O [Licochalcone D]
Kd [3, 6]: 4.87 µM
kon [3]: 2810 M⁻¹ s⁻¹
koff [3]: 0.0137 s⁻¹
inhibition at 40 µM [5]: > 90%
IC50 ([5]; with 0.01% Triton X-100): 29.5 µM
IC50 ([5]; without Triton X-100): 5.54 µM

CCCCC/C=C\C/C=C\CCCCCCCC(=O)O [Linoleic acid, Linoleic Acid]
Kd [3]: 10.8 µM
inhibition at 40 µM [5]: > 90%
IC50 ([5]; with 0.01% Triton X-100): 43 ± 1.93 µM

COc1cc(O)c2c(c1)C(=O)c1cc(C)cc(O)c1C2=O [Physcion]
Kd [3]: 167 µM
inhibition at 40 µM [5]: > 90%
IC50 ([5]; with 0.01% Triton X-100): 31.6 ± 25.6 µM
IC50 ([5]; without Triton X-100): 22.1 ± 3.01 µM

Reference: article PMC10394814, “Discovery and evaluation of active compounds from Xuanfei Baidu formula against COVID-19 via SARS-CoV-2 M^pro” (Chinese Medicine, 2023)
